Data reported in patent US5962415A, “Compositions comprising a peptide inhibitor of nuclear protein translocation and an immunosuppressant and methods of use thereof” (Bristol-Myers Squibb Co., priority 1998, dated 1999).

Tests used:
[1] = system: 70Z/3 murine leukemia pre-B cells; test: LPS-stimulated surface antigen expression (κ Ig light chain, IL-2 receptor, CD45) in 70Z/3 cells; type: cell-based; conditions: dose-response data, FIG. 1B
Procedure: Expression of κ Ig, CD45, CD40, and the interleukin-2 receptor was assayed using standard enzyme-linked immunosorbent assays ("ELISAs") (see, Coligan et al. (eds.) (1991) Current Protocols in Immunology, Wiley & Sons, p. 2.10 or by FACS staining to measure cell-surface markers as described in Raff (1970) Immunology 19:637). Antibodies form cell surface markers were obtained from Pharmingen Co.
The effect of the SV40MEM polypeptide was compared with two additional polypeptides, […] (SEQ ID NO:2) (the "HIV-1MEM" polypeptide), which is composed of the membrane translocation domain of FGF flanked by the NLS from the HIV-1 matrix protein and […] (SEQ ID NO:3) (the "C-MYCMEM" polypeptide), which contains the NLS from the human c-myc oncoprotein (Chelsky et al. (1989), supra, and Dang et al. (1988), supra) using murine 70Z/3 pre-B cells.
Murine 70Z/3 cells (ATCC TlD-158) are a model cell line for analyzing the effects of compounds on B-cell differentiation. In response to S. typhosa LPS (Difco) or γ-interferon, these cells differentiate from surface κ immunoglobulin negative to κ Ig positive.
[…] of: (1) a peptide containing only the FGF signal sequence AAVALLPAVLLALLAP (SEQ ID NO:4) (the "MEM" peptide); (2) a polypeptide having the FGF signal sequence and the NLS of NF-κB p50 on the carboxy terminus of the signal sequence, namely, the NF-κBMEM polypeptide; (3) the SV40MEM polypeptide comprised of L-amino acids; or (4) the SV40MEM polypeptide comprised of D-amino acids. The cells were then incubated with LPS as described in Example 2 and assayed for expression of κ light chain expression.

[2] = system: BALB/c mice immunized with KLH; test: Anti-hemocyanin (KLH) response in mice; type: in vivo; conditions: 5 mg/kg day 0 plus 5 doses every other day, serum day 14, FIG. 12
Procedure: Female BALB/c mice (8 weeks of age) were immunized by intraperitoneal injection of 25 μg keyhole limpet (Megathura crenulata) hemocyanin ("KLH") (Pacific Bio-Marine Laboratories, Venice, Calif.) without adjuvant on day 0. Mice were divided into groups of five and inhibitory peptides C-MYCMEM and BMS-205820 ([…] (SEQ ID NO:24)), which is identical to the SV40MEM polypeptide with the exception that the polypeptide lacks the C-terminal cysteine, were administered on day 0 at 5 mg/kg, followed by 5 subsequent doses of the same concentration every other day. Control mice were treated with a single 200-μg dose of Chimeric L6 antibody ("Chi L6"). After 14 days, the mice were bled from the orbital sinus and the level of anti-KLH antibodies were measured in the serum by ELISA as described in Example 11.

CD14 = test: LPS binding to CD14 (plate assay with soluble CD14 Ig); conditions: E. coli AO16 LPS, 2 hours at 4° C., FIG. 14
Procedure: 96-well plates were coated with goat-anti human Ig, soluble CD-1 4 Ig was added, and the plates were incubated overnight at 4° C. The BMS polypeptide, the C-MYCMEM polypeptide, an SV40 NLS polypeptide containing a single SV40 large T-antigen NLS, a c-myc NLS without a translocation sequence (AKRVKL (SEQ ID NO:6)), a control non-NLS polypeptide, 377G, or PBS, were added to the plates and the plates were incubated for 5 min. E. coli AO16 LPS was then added to the plates and the plates were incubated for 2 hours at 4° C. The plates were washed and LPS was detected using 0.5 μg/ml mouse anti-E. coli LPS, followed by goat anti-mouse horseradish peroxidase.

[3] = system: Splenic T-cells from BALB/c mice; test: Mouse splenic T-cell proliferation ([3H]-thymidine); type: cell-based; conditions: 0.5 or 2.0 μM, FIG. 16
Procedure: Splenic T-cells from BALB/c mice were isolated by glass wool chromatography and treated with either 0.5 or 2.0 μM peptide in 96 well plates for 2 hours followed by activation with either anti-CD3 alone ([…]), PMA alone (1 ng/ml), anti-CD3 plus anti-CD28 ([…] each) or anti-CD28 plus PMA ([…] and 1 ng/ml, respectively). Plates were coated with antibody 24 hours prior to activation. Proliferation was determined after 72 hours by pulsing for 8 hours with [^3 H]-thymidine, and determining radioactivity incorporated into DNA.

AKRVKLAAVALLPAVLLALLAKRVKLC [C-MYCMEM, contains the NLS from the human c-myc oncoprotein]
efficacy at inhibiting κ Ig light chain production (comparison of three polypeptides) [1]: approximately equally efficacious | potency at inhibiting κ Ig light chain production compared with SV40MEM [1]: not as potent | specific anti-KLH response [2]: inhibited | binding of LPS to CD14 (CD14): block it from binding CD14 | T cell proliferation ([3]; stimulated with PMA + anti-CD28, 2 hours pretreatment): inhibited | T cell proliferation ([3]; stimulated with anti-CD3 + anti-CD28, 2 hours pretreatment): augmentation of proliferation
